Test results published in PMC7939570, “Discovery of potent histone deacetylase inhibitors with modified phenanthridine caps” (Journal of Enzyme Inhibition and Medicinal Chemistry, 2021).

Columns and labels:
[1] = test system: Hela nucleus extract containing a mixture of HDAC isoforms; test: HDAC enzyme inhibitory assay with Hela nucleus extract; type: biochemical; conditions: 1 µM, mean of three experiments
Experimental: The HDAC enzyme inhibitory activities of synthesised compounds were investigated by utilising Hela nucleus extract containing a mixture of HDAC isoforms. Percentage inhibitory rate was used to determine the activity of tested compounds (Tables 1 and 2). The Fa series compounds were firstly synthesised for the activity screening. […] To investigate whether aromatic linker could improve the inhibitory activities, structural modifications were performed on current molecules.

U937 cells = test: MTT antiproliferative assay, U937 cells; conditions: U937 cells, MTT, mean of three experiments; for inhibition at 1 µM: Homo sapiens, U-937, read-out: U937 percentage inhibitory rate, 1 µM; for U937 percentage inhibitory rate: 1 µM

Row | Molecule | HDACs percentage inhibitory rate [1] [%] | inhibition at 1 µM (U937 cells) [%] | U937 percentage inhibitory rate (U937 cells) [%]
1 | O=C(NO)c1ccc(CNC(=O)c2ccc(-c3cc4c(cc3NC(=O)c3cccc(Br)c3)OCO4)cc2)cc1 [Fb-10, 4-({4-[6–(3-Bromo-benzoylamino)-benzo[1,3]dioxol-5-yl]-benzoylamino}-methyl)-N-Hydroxy-benzamide] | 49.47 ± 9.25 | 86.2 ± 4.18 | –
2 | O=C(CCCNC(=O)c1ccc(-c2cc3c(cc2NC(=O)c2cc(F)cc(F)c2)OCO3)cc1)NO [Fa-14, 4-{4-[6–(3,5-Difluoro-benzoylamino)-benzo[1,3]dioxol-5-yl]-benzoylamino}-N-Hydroxy-butyramide] | 28.72 ± 4.74 | 9.84 ± 0.71 | –
3 | O=C(CCCNC(=O)c1ccc(-c2cc3c(cc2NC(=O)c2ccc(F)cc2F)OCO3)cc1)NO [Fa-15, 4-{4-[6–(2,4-Difluoro-benzoylamino)-benzo[1,3]dioxol-5-yl]-benzoylamino}-N-Hydroxy-butyramide] | 19.51 ± 4.10 | 6.76 ± 0.26 | –
4 | CCc1ccc(C(=O)Nc2cc3c(cc2-c2ccc(C(=O)NCCCC(=O)NO)cc2)OCO3)cc1 [Fa-7, 4-{4-[6-(4-Ethyl-benzoylamino)-benzo[1,3]dioxol-5-yl]-benzoylamino}-N-Hydroxy-butyramide] | 25.79 ± 5.79 | 22.2 ± 2.28 | –
5 | O=C(CCCNC(=O)c1ccc(-c2cc3c(cc2NC(=O)c2ccc(F)cc2C(F)(F)F)OCO3)cc1)NO [Fa-18, 4-{4-[6–(4-Fluoro-2-trifluoromethyl-benzoylamino)-benzo[1,3]dioxol-5-yl]-benzoylamino}-N-Hydroxy-butyramide] | 31.47 ± 3.47 | 10.3 ± 1.31 | –
6 | O=C(NO)c1ccc(CNC(=O)c2ccc(-c3cc4c(cc3NC(=O)c3cccc(F)c3)OCO4)cc2)cc1 [Fb-6, 4-({4-[6–(3-Fluoro-benzoylamino)-benzo[1,3]dioxol-5-yl]-benzoylamino}-methyl)-N-Hydroxy-benzamide] | 58.36 ± 5.06 | 92.2 ± 2.72 | –
7 | COc1ccccc1C(=O)Nc1cc2c(cc1-c1ccc(C(=O)NCCCC(=O)NO)cc1)OCO2 [Fa-2, 4-{4-[6–(2-Methoxy-benzoylamino)-benzo[1,3]dioxol-5-yl]-benzoylamino}-N-Hydroxy-butyramide] | 15.23 ± 3.23 | 19.2 ± 1.09 | –
8 | Nc1cc2c(cc1-c1ccc(C(=O)NCc3ccc(C(=O)NO)cc3)cc1)OCO2 [Fb-14, 4-{[4–(6-Amino-benzo[1,3]dioxol-5-yl)-benzoylamino]-methyl}-N-Hydroxy-benzamide] | 58.84 ± 2.40 | 75.6 ± 2.28 | –
9 | Cc1ccccc1C(=O)Nc1cc2c(cc1-c1ccc(C(=O)NCCCC(=O)NO)cc1)OCO2 [Fa-4, 4-{4-[6-(2-Methyl-benzoylamino)-benzo[1,3]dioxol-5-yl]-benzoylamino}-N-Hydroxy-butyramide] | 13.65 ± 4.04 | 18.2 ± 2.91 | –
10 | O=C(CCCNC(=O)c1ccc(-c2cc3c(cc2NC(=O)c2ccccc2Cl)OCO3)cc1)NO [Fa-10, 4-{4-[6-(2-Chloro-benzoylamino)-benzo[1,3]dioxol-5-yl]-benzoylamino}-N-Hydroxy-butyramide] | 23.41 ± 1.95 | 23 ± 1.23 | –
11 | O=C(CCCNC(=O)c1ccc(-c2cc3c(cc2NC(=O)c2ccc(F)cc2)OCO3)cc1)NO [Fa-3, 4-{4-[6-(4-Fluoro-benzoylamino)-benzo[1,3]dioxol-5-yl]-benzoylamino}-N-Hydroxy-butyramide] | 9.22 ± 2.28 | 19.4 ± 1.44 | –
12 | O=C(CCCNC(=O)c1ccc(-c2cc3c(cc2NC(=O)c2ccccc2)OCO3)cc1)NO [Fa-11, 4-[4–(6-Benzoylamino-benzo[1,3]dioxol-5-yl)-benzoylamino]-N-Hydroxy-butyramide] | 14.32 ± 2.19 | 25.6 ± 1.76 | –
13 | Cc1ccccc1C(=O)Nc1cc2c(cc1-c1ccc(C(=O)NCc3ccc(C(=O)NO)cc3)cc1)OCO2 [Fb-9, 4-({4-[6–(2-Methyl-benzoylamino)-benzo[1,3]dioxol-5-yl]-benzoylamino}-methyl)-N-Hydroxy-benzamide] | 35.97 ± 3.07 | 69.2 ± 3.08 | –
14 | O=C(CCCNC(=O)c1ccc(-c2cc3c(cc2NC(=O)c2ccc(OC(F)(F)F)cc2)OCO3)cc1)NO [Fa-16, 4-{4-[6–(4-Trifluoromethoxy-benzoylamino)-benzo[1,3]dioxol-5-yl]-benzoylamino}-N-Hydroxy-butyramide] | 34.10 ± 1.02 | 16.1 ± 2.82 | –
15 | O=C(CCCNC(=O)c1ccc(-c2cc3c(cc2NC(=O)c2c(F)cccc2Cl)OCO3)cc1)NO [Fa-21, 4-{4-[6–(2-Chloro-6-fluoro-benzoylamino)-benzo[1,3]dioxol-5-yl]-benzoylamino}-N-Hydroxy-butyramide] | 15.58 ± 3.25 | 11.2 ± 1.01 | –
16 | CC(C)(C)OC(=O)Nc1cc2c(cc1-c1ccc(C(=O)NCc3ccc(C(=O)NO)cc3)cc1)OCO2 [Fb-13, 4-{[4–(6-Tert-Butoxycarbonylamino-benzo[1,3]dioxol-5-yl)-benzoylamino]-methyl}-N-Hydroxy-benzamide] | 48.09 ± 3.01 | 75.5 ± 2.4 | –
17 | O=C(CCCNC(=O)c1ccc(-c2cc3c(cc2NC(=O)c2ccc(F)c(Cl)c2)OCO3)cc1)NO [Fa-19, 4-{4-[6–(3-Chloro-4-fluoro-benzoylamino)-benzo[1,3]dioxol-5-yl]-benzoylamino}-N-Hydroxy-butyramide] | 24.43 ± 2.90 | 15.8 ± 2.29 | –
18 | O=C(NO)c1ccc(CNC(=O)c2ccc(-c3cc4c(cc3NC(=O)c3ccccc3)OCO4)cc2)cc1 [Fb-1, 4-{[4–(6-Benzoylamino-benzo[1,3]dioxol-5-yl)-benzoylamino]-methyl}-N-Hydroxy-benzamide] | 57.50 ± 2.92 | 65.2 ± 0.29 | –
19 | O=C(NO)c1ccc(CNC(=O)c2ccc(-c3cc4c(cc3NC(=O)c3ccc(C(F)(F)F)cc3)OCO4)cc2)cc1 [Fb-7, 4-({4-[6–(4-Trifluoromethyl-benzoylamino)-benzo[1,3]dioxol-5-yl]-benzoylamino}-methyl)-N-Hydroxy-benzamide] | 47.03 ± 15.05 | 84.9 ± 1.68 | –
20 | O=C(CCCNC(=O)c1ccc(-c2cc3c(cc2NC(=O)c2cccc(C(F)(F)F)c2)OCO3)cc1)NO [Fa-9, 4-{4-[6-(3-Trifluoromethyl-benzoylamino)-benzo[1,3]dioxol-5-yl]-benzoylamino}-N-Hydroxy-butyramide] | 18.92 ± 1.30 | 20.45 ± 0.05 | –
21 | O=C(CCCNC(=O)c1ccc(-c2cc3c(cc2NC(=O)c2ccc(F)c(C(F)(F)F)c2)OCO3)cc1)NO [Fa-23, 4-{4-[6–(4-Fluoro-3-trifluoromethyl-benzoylamino)-benzo[1,3]dioxol-5-yl]-benzoylamino}-N-Hydroxy-butyramide] | 20.29 ± 0.29 | 17.4 ± 3.35 | –
22 | O=C(CCCNC(=O)c1ccc(-c2cc3c(cc2NC(=O)c2cccc(Br)c2)OCO3)cc1)NO [Fa-1, 4-{4-[6–(3-Bromo-benzoylamino)-benzo[1,3]dioxol-5-yl]-benzoylamino}-N-Hydroxy-butyramide] | 6.63 ± 1.28 | 21 ± 0.55 | –
23 | O=C(NO)c1ccc(CNC(=O)c2ccc(-c3cc4c(cc3NC(=O)c3cccc(C(F)(F)F)c3)OCO4)cc2)cc1 [Fb-8, 4-({4-[6–(3-Trifluoromethyl-benzoylamino)-benzo[1,3]dioxol-5-yl]-benzoylamino}-methyl)-N-Hydroxy-benzamide] | 47.09 ± 0.62 | 78.2 ± 3.05 | –
24 | 4-{4-[6–(3-Nitro-benzoylamino)-benzo[1,3]dioxol-5-yl]-benzoylamino}-N-Hydroxy-butyramide [Fa-17] | 52.44 ± 6.17 | – | 13.42 ± 0.81
25 | O=C(CCCNC(=O)c1ccc(-c2cc3c(cc2NC(=O)c2cccc(F)c2)OCO3)cc1)NO [Fa-5, 4-{4-[6-(3-Fluoro-benzoylamino)-benzo[1,3]dioxol-5-yl]-benzoylamino}-N-Hydroxy-butyramide] | – | 19.9 ± 1.33 | 33.95 ± 1.70
26 | COc1ccc(C(=O)Nc2cc3c(cc2-c2ccc(C(=O)NCCCC(=O)NO)cc2)OCO3)cc1 [Fa-13, 4-{4-[6–(4-Methoxy-benzoylamino)-benzo[1,3]dioxol-5-yl]-benzoylamino}-N-Hydroxy-butyramide] | 44.51 ± 0.22 | 88.9 ± 5 | –
27 | O=C(CCCNC(=O)c1ccc(-c2cc3c(cc2NC(=O)c2ccccc2F)OCO3)cc1)NO [Fa-8, 4-{4-[6-(2-Fluoro-benzoylamino)-benzo[1,3]dioxol-5-yl]-benzoylamino}-N-Hydroxy-butyramide] | 5.32 ± 1.72 | 19.9 ± 1.96 | –
28 | CCCc1ccc(C(=O)Nc2cc3c(cc2-c2ccc(C(=O)NCCCC(=O)NO)cc2)OCO3)cc1 [Fa-20, 4-{4-[6–(4-Propyl-benzoylamino)-benzo[1,3]dioxol-5-yl]-benzoylamino}-N-Hydroxy-butyramide] | 21.14 ± 2.55 | 12.2 ± 0.24 | –
